Experimental data as given in patent publication US20230364079A1, “COMPOUND AS BRAIN-PERMEABLE BTK OR HER2 INHIBITOR, PREPARATION METHOD THEREFOR, AND USE THEREOF” (CHENGDU HYPERWAY PHARMACEUTICALS CO., LTD., priority 2020, published 2023).
Where a name gives a salt, the structure may show the parent alone. Read-outs that look alike come from different tables or passages of the source.

Experiments:
[1] = Pharmacokinetic test, oral, SD rats; format: in vivo; conditions: oral 10 mg/kg, plasma; for AUC(0-inf) / Cmax / half-life: rat; for Cmax: read-out: Cmax; for half-life: read-out: T½ (converted)
Protocol: Each test compound was administered orally (10 mg/kg, 3 rats in each group) to SD rats for pharmacokinetic study. […] Animals were fasted overnight before oral administration, and fed again after 4 h of administration. […] At each collection time point, 3 whole blood samples were collected at a the collection volume of about 0.2-0.3 mL. […] The collected plasma was stored at -20° C. before analysis. 20 µL of plasma sample was added into a 1.6 mL 96-well deep-well plate, added with 200 µL of working internal standard solution (the same volume of vehicle was added to the blank instead of internal standard), vortexed for 1 min, and centrifuged at 5800 rpm for 10 min. 100 µL of the supernatant was added to a 96-well injection plate for LC-MS/MS analysis.

[2] = biological target: BTK mutation-type C481S kinase (Homo sapiens (Human), UniProt Q06187, C481S); experiment: BTK-C481S kinase activity inhibition test in vitro (Caliper EZ Reader); format: biochemical
Protocol: In the tests on the activity of inhibiting BTK and HER2 kinase in vitro in the examples of the present disclosure, powder of the compound was dissolved in 100% DMSO to prepare a 10 mM stock solution and stored at-20° C. in the dark. […] In addition, the compounds were subjected to experiments such as liver microsome metabolic stability, rat PK, rat brain penetration rate, and drug efficacy model in the examples of the present disclosure.
Compound powders were dissolved in 100% DMSO to make 10 mM stock solutions, which were stored at -20° C. in the dark.
2: Kinase Reaction Process
(1) Preparation of 1 × Kinase buffer.
(5) After centrifugation at 1000 rpm for 30 seconds, the reaction plate was shaken to mix well and incubated at room temperature for 10 min.
(6) A 5/3-fold final concentration of a mixed solution of ATP and Kinase substrate 2 was prepared with 1 × Kinase buffer.
(7) 15 µL of the mixed solution of ATP and substrate with 5/3-fold final concentration was added to start the reaction.
(8) The 384-well plate was centrifuged at 1000 rpm for 30 seconds, shaken to mix well, and incubated at room temperature for 10 min.
(9) 30 µL of a stop solution was added to stop the kinase reaction, and after centrifugation at 1000 rpm for 30 seconds, the plate was shaken to mix well;
(10) The conversion rate was read with Caliper EZ Reader.
where Conversion%_sample indicates the conversion rate reading of the sample; Conversion%_min is the average reading of the negative control wells, representing the conversion rate reading of the wells without enzyme activity; Conversion%_max is the average reading of the ratio of the positive control wells, representing the conversion rate reading of the wells without compound inhibition.
Dose-Response Curve Fitting
With the log value of the concentration as the X-axis, and the percentage inhibition rate as the Y-axis, the dose-effect curve was fitted using the log(inhibitor) vs. response-Variable slope of the analysis software GraphPad Prism 5, so as to determine the IC50 value of each compound on the enzyme activity.
The calculation formula was: […]

[3] = Liver microsome metabolic stability test, rat; format: in vitro ADME; conditions: for half-life: liver microsomes, 0.5 mg/mL protein, read-out: T½
Protocol: (§1) 1: To the sample wells of T0, T5, T10, T20, T30, T60 and NCF60, 10 µL of the test or reference working solution and 80 µL of microsome working solution (hepatic microsome with a protein concentration of 0.5 mg/mL) were added, and to Blank60 well, only the microsome working solution was added. Then samples of the Blank60, T5, T10, T20, T30 and T60 other than T0 and NCF60 were placed in a 37° C. water bath and pre-incubated for about 10 min.
(§2) 2: To the T0 sample well, 300 µL of stop solution (containing 200 ng/mL tolbutamide and 200 ng/mL labetalol in acetonitrile solution) was added first, followed by 10 µL of NADPH regeneration system working solution.
(§3) 3: After the pre-incubation of Blank60, T5, T10, T20, T30 and T60 incubation plates, 10 µL of NADPH regeneration system working solution was added to each sample well to start the reaction, and 10 µL of 100 mM potassium phosphate buffer was added to the NCF60 sample well.
(§4) 4: After incubation for an appropriate time (such as 5, 10, 20, 30 and 60 min), to each test sample well and control well of the Blank60, T5, T10, T20, T30, T60 and NCF60 plates, 300 µL of stop solution was added to terminate the reaction.
(§5) 5: All sample plates were shaken to mix well and centrifuged at 4000 rpm for 20 min, and 100 µL of the supernatant of the test sample or control sample was taken and diluted with 300 µL of pure water for LC-MS/MS analysis.
(§6) 6: Data analysis: T½ and CLint(mic) (µL/min/mg) values were calculated according to the first-order elimination kinetics. The first-order elimination kinetics equation was: […]

[4] = Liver microsome metabolic stability test, human; format: in vitro ADME; conditions: for half-life: liver microsomes, 0.5 mg/mL protein, read-out: T½
Protocol: as §1, §2, §3, §4, §5, §6

BTK wild-type kinase = BTK wild-type kinase (Homo sapiens (Human), UniProt Q06187); experiment: BTK kinase activity inhibition test in vitro (Caliper EZ Reader); format: biochemical
Summary of the method: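 Compound (10 mM DMSO stock) preincubated with kinase 10 min at room temperature, then ATP plus kinase substrate 2 added, 10 min reaction at room temperature before stop. Substrate conversion read by Caliper mobility shift; inhibition normalised to no-enzyme and no-compound controls, IC50 by variable-slope log(inhibitor) fit.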

[5] = tested on: TMD8 mouse subcutaneous xenograft tumor; experiment: TMD8 pharmacodynamic model test (mouse subcutaneous xenograft tumor); format: in vivo; conditions: same dose of 10 mg/kg, FIG. 1
Protocol: Test Example 7: TMD8 Pharmacodynamic Model Test
Human diffuse large B-cell lymphoma TMD8 cells were monolayer-cultured in vitro in RPMI1640 medium with 10% fetal bovine serum, 100 U/mL penicillin and 100 µg/mL streptomycin, in a 37° C., 5% CO2 incubator. Routine digestion with trypsin-EDTA was performed twice a week for passaging. When the cell density was 80%-90% and the number reached the requirement, cells were harvested, counted and inoculated. 0.2 ml (1×10^7 cells) of TMD8 cells (added with matrigel at a volume ratio of 1:1) were subcutaneously inoculated on the right back of each mouse. The mice were administered in groups when the average tumor volume reached about 137 mm^3. Tumor diameters were measured twice a week with vernier calipers. The tumor volume was calculated by the formula V = 0.5 a × b^2, where a and b represent the long and short diameters of the tumor, respectively.

[6] = Blood-brain barrier permeability test, SD rats (plasma, cerebrospinal fluid, brain tissue); format: in vivo; conditions: oral single dose 10 mg/kg
Protocol: Test Example 6: Blood-brain Barrier Permeability Test
Each test compound was administered orally at a single dose of 10 mg/kg to SD rats for pharmacokinetic study. Each group included 9 rats. The test compound was dissolved in 5% DMSO+10% solutol+85% saline, vortexed for 1-2 min, and ultrasonicated for 5-10 min to prepare into a colorless, transparent and clear administration solution. Animals were fasted overnight before administration. 1 h, 2 h, and 4 h after administration, three SD rats were selected from each group to take about 0.2-0.3 mL of blood through their orbit. The blood sample was placed on ice once collected, and centrifuged to separate the plasma within 15 min (centrifugation conditions: 8000 rpm, 1 min, room temperature). The collected plasma was stored at -20° C. before analysis. Immediately after blood collection, the cerebrospinal fluid and brain tissue were collected. The cerebrospinal fluid was draw out by dural puncture with a micro-sampler syringe under direct vision. Namely, about 100 µl of cerebrospinal fluid was collected with a 100 µl micro sample syringe from the rat that was anesthetized by chloral hydrate, with the head-fixed, the back hair-cut off, a transverse incision (2 cm) made at the line connecting the roots of the two ears, and the muscle layer of the neck and skull base bluntly scraped to expose the foramen magnum. The cerebrospinal fluid was stored at -20° C. before analysis. The rat then was sacrificed immediately, with its head cut off. The dissected brain tissue, with the surface capillaries peeled off, was weighed, added with 3 times the amount of cold saline, homogenized by a homogenizer for 1 min, and stored at -20° C. before analysis. 20 µL of plasma sample and brain homogenate sample was respectively added into 200 µL of working internal standard solution (the same volume of vehicle was added to the blank instead of internal standard), vortexed for 1 min, and centrifuged at 13500 rpm for 10 min. 100 µL of the supernatant was taken and analyzed by LC-MS/MS. 20 µL of the cerebrospinal fluid was added into 60 µL of working internal standard solution (the same volume of vehicle, instead of internal standard, was added to the blank), vortexed for 1 min, and centrifuged at 13500 rpm for 10 min. 50 µL of the supernatant was taken and analyzed by LC-MS/MS.

[7] = tested on: DOHH-2-luc tumor cells in the mouse brain; experiment: DOHH-2-Luc intracerebral tumor drug efficacy model test; format: in vivo; conditions: DOHH-2-Luc intracerebral model, same dose, FIG. 4
Protocol: Test Example 8: DOHH-2-Luc Intracerebral Tumor Drug Efficacy Model Test
DOHH-2-luc tumor cells were cultured in vitro with RPMI 1640 medium containing 10% fetal bovine serum and 500 ng/mL puromycin in a 37° C., 5% CO2 incubator. […] Tumor cells in logarithmic growth phase were used for inoculation of tumors in vivo.
2. Inoculation of Tumor Cell and Grouping
After the animal was anesthetized by intramuscular injection of Zoletil, it was fixed on the operating table in a prone position. The skin on the top of the head was disinfected with iodine and 75% alcohol respectively, and the skin was cut about 0.5 cm along the midline of the head to expose the coronal and sagittal lines. Being located about 0.5-1.0 mm above the coronal line and about 2 mm to the right of the sagittal line by using a brain locator, a hole was drilled with a 1 mL syringe needle. The micro-injector was inserted vertically to a depth of 3 mm at the location, slowly (about 1 min) injected with 3 × 10^5 DOHH-2-luc tumor cells /2 µL suspension and kept for 1 min. After pulling out the needle, the needle hole was quickly sealed with bone wax, and the wound was sutured with a stapler. About the 7th day after tumor inoculation, the animals were randomly divided into 5 groups according to the body weight of the animals and the optical signal intensity of the tumor site, with 5 animals in each group.
The mice were imaged 1-2 times a week according to their state using the small animal in vivo imaging system IVIS Lumina III (Perkin Elmer). The bioluminescence imaging (BLI, unit: photons/s) signal intensity at the tumor cell inoculation site of mouse was monitored as the main indicator for evaluating tumor growth and drug efficacy. The specific operation is as follows:
The mice were intraperitoneally injected with D-luciferin (15 mg/mL, 5 µL/g according to the body weight of the experimental animal), and then inhaled anesthetized with 1%-2% isoflurane. 10 min after the injection of D-luciferin, the animals were imaged with IVIS Lumina III. The data were analyzed and processed using Living Image software (Perkin Elmer), and the optical signal intensity in ROI (regions of interest) of each animal was calculated.

[8] = tested on: relapsed/refractory central nervous system lymphoma; conditions: cited from earlier work; for ORR / PFS: patients

Sequence of BTK wild-type kinase (Q06187 whole entry): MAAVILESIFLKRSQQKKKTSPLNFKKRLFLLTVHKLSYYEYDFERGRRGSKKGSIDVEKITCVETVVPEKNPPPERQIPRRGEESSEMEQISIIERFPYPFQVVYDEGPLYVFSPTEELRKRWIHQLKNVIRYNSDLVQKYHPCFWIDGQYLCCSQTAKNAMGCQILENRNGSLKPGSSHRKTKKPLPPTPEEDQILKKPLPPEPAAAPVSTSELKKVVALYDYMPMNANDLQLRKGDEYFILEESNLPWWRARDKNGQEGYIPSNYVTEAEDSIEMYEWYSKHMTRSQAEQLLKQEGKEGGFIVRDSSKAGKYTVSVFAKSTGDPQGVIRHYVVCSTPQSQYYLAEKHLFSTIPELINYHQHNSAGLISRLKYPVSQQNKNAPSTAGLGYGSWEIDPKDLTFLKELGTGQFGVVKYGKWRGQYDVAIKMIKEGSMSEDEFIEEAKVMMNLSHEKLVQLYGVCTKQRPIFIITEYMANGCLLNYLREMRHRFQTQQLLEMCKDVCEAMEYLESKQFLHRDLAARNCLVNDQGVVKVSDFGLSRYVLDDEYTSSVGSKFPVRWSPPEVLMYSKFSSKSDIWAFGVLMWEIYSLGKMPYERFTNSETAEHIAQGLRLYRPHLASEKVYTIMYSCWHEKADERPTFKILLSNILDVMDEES
Sequence of BTK mutation-type C481S kinase (Q06187 whole entry C481S): as the sequence (Q06187 whole entry) above, with C481S counted along it

| SMILES | Cl [1] [mL/min/kg] | AUC(0-inf) [1] [ng·h/mL] | Cmax [1] [ng/mL] | half-life [1] [h] | IC50 [2] [nM] | %Remaining (60 min) [3] [%] | half-life [3] [h] | %Remaining (60 min) [4] [%] | half-life [4] [h] | IC50 (BTK wild-type kinase) [nM] | further results |
| --- | --- | --- | --- | --- | --- | --- | --- | --- | --- | --- | --- |
| COc1cccc(Oc2ccc(-c3nc(C4CCC(CO)OC4)n4ccnc(N)c34)cc2)c1C#N (single isomer, unassigned) [Compound 89-P1] | 20.53 | 8120 | 2980 | 1.16 | < 5 | 61.0 | 1.47 | 100.4 | > 2.42 | < 5 | inhibitory effect against the tumor compared with ARQ-531 and ibrutinib [5]: significantly better inhibitory effect against the tumor |
| Nc1nccn2c(C3CCC(CO)OC3)nc(-c3ccc(Cc4ccccc4)cc3)c12 (stereo not drawn) [Compound 106] | 64.75 | 2580 | 1220 | 1.87 | < 5 | 39.1 | 0.782 | 66.3 | 1.76 | < 5 |  |
| Nc1nccn2c(C3CCC(CO)OC3)nc(-c3ccc(C(F)(F)c4ccccc4)cc3)c12 (stereo not drawn) [Compound 111] | 17.83 | 9630 | 1780 | 3.15 | < 5 | 46 | 0.887 | 73.5 | 2.12 | < 5 |  |
| Nc1nccn2c(C34CCC(CO)(CC3)OC4)nc(-c3ccc(C(F)(F)c4cccc(F)c4Cl)cc3)c12 [Compound 146] |  |  |  |  |  |  |  |  |  |  | Brain tissue/plasma ([6]; 1 h): 78%; Cerebrospinal fluid/plasma ([6]; 1 h): 7.2%; Drug concentration in brain tissue ([6]; 1 h): 296 ng/g; Drug concentration in cerebrospinal fluid ([6]; 1 h): 27.4 ng/mL; Plasma drug concentration ([6]; 1 h): 380 ng/mL; Brain tissue/plasma ([6]; 4 h): 110%; Cerebrospinal fluid/plasma ([6]; 4 h): 9.2%; Drug concentration in brain tissue ([6]; 4 h): 410 ng/g; Drug concentration in cerebrospinal fluid ([6]; 4 h): 34.3 ng/mL; Plasma drug concentration ([6]; 4 h): 373 ng/mL |
| CC#CC(=O)N1CC[C@@H](n2c(=O)n(-c3ccc(Oc4ccccc4)cc3)c3c(N)ncnc32)C1 [Tirabrutinib, reference compound] | 189.92 | 965 | 920 | 0.33 |  | 37.0 | 0.702 | 66.3 | 1.77 |  | tumor size in the brain by fluorescence image [7]: large red areas; ORR ([8]; 320 mg QD): 60%; PFS ([8]; 320 mg QD): 2.1 months; ORR ([8]; 480 mg QD (fasting condition)): 52.9%; PFS ([8]; 480 mg QD (fasting condition)): 5.8 months; ORR ([8]; 480 mg QD): 100%; PFS ([8]; 480 mg QD): 11.1 months |
| CC#CC(=O)N1CC[C@@H](n2c(=O)n(-c3ccc(Oc4ccccc4)cc3)c3c(N)ncnc32)C1 [Velexbru, Tirabrutinib hydrochloride] |  |  |  |  |  |  |  |  |  |  | patients who achieved effective remission ([8]; relapsed or refractory PCNSL patients): 52.9% |
